According to patent US11331299B2, “Medicinal use of serrulatane diterpenes” (The University of Sydney, priority 2016, dated 2022):
Where two headings read alike, the source gives them in different places.

What was measured:
[1] = target: T1, sirtuin 1 (h) (inhibitor effect) (Homo sapiens, UniProt Q96EB6); experiment: Epigenetic enzyme assay, Sirtuins; type: biochemical; details: read-out: % Inhibition of Control Values
T1 sequence (Q96EB6 1-747): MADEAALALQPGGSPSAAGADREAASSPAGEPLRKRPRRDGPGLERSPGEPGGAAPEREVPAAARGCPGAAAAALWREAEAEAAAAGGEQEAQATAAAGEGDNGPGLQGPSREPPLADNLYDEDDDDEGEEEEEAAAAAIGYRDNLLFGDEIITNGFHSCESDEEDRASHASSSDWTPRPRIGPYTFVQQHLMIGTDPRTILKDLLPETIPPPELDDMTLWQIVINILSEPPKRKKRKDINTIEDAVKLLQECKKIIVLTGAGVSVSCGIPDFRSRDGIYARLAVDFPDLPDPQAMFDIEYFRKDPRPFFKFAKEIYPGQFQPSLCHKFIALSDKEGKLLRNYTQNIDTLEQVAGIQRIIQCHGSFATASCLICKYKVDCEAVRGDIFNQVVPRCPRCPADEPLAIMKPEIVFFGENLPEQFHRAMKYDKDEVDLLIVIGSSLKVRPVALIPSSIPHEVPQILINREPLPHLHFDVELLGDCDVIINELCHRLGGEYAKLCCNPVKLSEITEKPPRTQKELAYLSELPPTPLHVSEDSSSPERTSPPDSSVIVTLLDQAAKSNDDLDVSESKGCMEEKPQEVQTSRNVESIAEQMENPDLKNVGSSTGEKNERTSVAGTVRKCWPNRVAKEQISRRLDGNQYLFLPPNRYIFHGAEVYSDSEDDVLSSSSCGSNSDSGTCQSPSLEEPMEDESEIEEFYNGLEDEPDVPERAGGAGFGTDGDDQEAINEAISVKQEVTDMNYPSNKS

PRMT1 (h) = PRMT1 (h) (Homo sapiens, UniProt Q99873); experiment: Epigenetic enzyme assay, Methyltransferases (MTs); type: biochemical; details: read-out: % Inhibition of Control Values
Sequence of PRMT1 (h) (Q99873 whole entry): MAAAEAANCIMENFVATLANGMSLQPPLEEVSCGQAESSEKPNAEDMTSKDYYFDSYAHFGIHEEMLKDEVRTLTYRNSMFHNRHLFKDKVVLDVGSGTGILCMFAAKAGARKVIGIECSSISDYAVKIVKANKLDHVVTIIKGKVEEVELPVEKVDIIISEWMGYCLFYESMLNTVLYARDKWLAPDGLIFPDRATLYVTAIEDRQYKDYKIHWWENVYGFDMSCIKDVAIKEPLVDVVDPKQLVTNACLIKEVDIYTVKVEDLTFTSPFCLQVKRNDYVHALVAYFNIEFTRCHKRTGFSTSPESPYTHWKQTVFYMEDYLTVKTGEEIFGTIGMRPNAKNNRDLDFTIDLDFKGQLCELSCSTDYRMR

Deacetylase, Histone 2 = target: T2, Deacetylase, Histone 2 (Homo sapiens, UniProt Q92769); experiment: Deacetylase, Histone 2 (PanLab); type: biochemical
T2 construct: host or cells: Insect Sf9 cells
T2 sequence (Q92769 whole entry): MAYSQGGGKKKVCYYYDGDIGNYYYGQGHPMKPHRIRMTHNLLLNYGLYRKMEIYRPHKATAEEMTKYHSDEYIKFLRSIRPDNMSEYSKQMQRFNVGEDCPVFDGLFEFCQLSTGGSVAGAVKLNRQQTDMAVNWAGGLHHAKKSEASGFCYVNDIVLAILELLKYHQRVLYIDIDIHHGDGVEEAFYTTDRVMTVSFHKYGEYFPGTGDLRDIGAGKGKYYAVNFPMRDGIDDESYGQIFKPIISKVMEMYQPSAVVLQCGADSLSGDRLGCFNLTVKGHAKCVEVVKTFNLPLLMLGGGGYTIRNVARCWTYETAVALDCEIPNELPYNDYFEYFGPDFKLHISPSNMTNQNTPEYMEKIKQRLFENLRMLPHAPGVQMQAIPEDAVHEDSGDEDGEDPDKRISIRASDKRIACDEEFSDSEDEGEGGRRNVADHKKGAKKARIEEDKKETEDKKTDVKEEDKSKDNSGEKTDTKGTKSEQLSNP
Protocol: The in vitro pharmacological studies were conducted by Eurofins PanLab (Taiwan) using the parameters shown in Table 13 with respect to appropriate literature references.

[2] = target: Histamine N-methyltransferase (h) (Homo sapiens, UniProt P50135); experiment: Epigenetic enzyme assay, Small molecule methyltransferases; type: biochemical; details: read-out: % Inhibition of Control Values
Sequence of Histamine N-methyltransferase (h) (P50135 whole entry): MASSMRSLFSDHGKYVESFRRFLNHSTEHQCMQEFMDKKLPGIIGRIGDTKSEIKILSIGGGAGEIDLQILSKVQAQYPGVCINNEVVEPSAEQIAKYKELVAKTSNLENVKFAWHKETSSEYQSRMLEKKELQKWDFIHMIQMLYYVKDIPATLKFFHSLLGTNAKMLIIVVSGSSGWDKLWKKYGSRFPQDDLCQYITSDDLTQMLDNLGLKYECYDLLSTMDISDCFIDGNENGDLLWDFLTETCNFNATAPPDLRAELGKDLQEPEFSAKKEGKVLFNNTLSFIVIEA

SETD7 (h) = target: T3, SETD7 (h) (Homo sapiens, UniProt Q8WTS6); experiment: Epigenetic enzyme assay, Methyltransferases (MTs); type: biochemical; details: for inhibition at 10 µM: read-out: % Inhibition of Control Values
T3 sequence (Q8WTS6 1-366): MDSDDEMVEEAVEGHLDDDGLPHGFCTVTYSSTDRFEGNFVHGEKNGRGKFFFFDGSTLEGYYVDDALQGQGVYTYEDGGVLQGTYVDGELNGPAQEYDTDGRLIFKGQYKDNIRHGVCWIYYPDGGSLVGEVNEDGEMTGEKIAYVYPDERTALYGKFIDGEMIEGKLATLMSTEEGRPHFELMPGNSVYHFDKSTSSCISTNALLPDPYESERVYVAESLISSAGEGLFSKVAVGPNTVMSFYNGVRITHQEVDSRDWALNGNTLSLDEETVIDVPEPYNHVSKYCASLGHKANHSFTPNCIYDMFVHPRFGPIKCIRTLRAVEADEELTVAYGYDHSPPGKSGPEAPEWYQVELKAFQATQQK

TAF1(2)(h) bromodomain = target: T4, TAF1(2)(h) bromodomain (Homo sapiens, UniProt P21675); experiment: Epigenetic binding assay, Bromodomain; details: 10 μM; for inhibition at 10 µM: read-out: % Inhibition of Control Specific Binding
T4 construct: Bromodomain
T4 sequence (P21675 1519-1628 limits assumed): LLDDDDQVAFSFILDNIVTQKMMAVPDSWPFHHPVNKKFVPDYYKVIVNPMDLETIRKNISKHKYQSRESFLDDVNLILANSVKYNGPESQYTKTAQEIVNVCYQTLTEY

PCAF (h) bromodomain = target: T5, PCAF (h) bromodomain (Homo sapiens, UniProt Q92831); experiment: Epigenetic binding assay, Bromodomain; details: 10 μM; read-out: % Inhibition of Control Specific Binding
T5 construct: Bromodomain
T5 sequence (Q92831 723-827 limits assumed): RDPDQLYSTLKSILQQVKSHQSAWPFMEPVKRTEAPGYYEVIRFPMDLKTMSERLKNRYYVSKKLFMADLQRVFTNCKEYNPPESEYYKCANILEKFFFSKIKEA

J-RT3-T3-5 leukemia = experiment: OncoPanel cell proliferation assay (10-day); type: cell-based, human; details: for GI50 / EC50 / IC50: Homo sapiens; for EC50: read-out: Cell Count EC50; for IC50: read-out: Cell Count IC50
HDAC3 (h) = HDAC3 (h) (Homo sapiens, UniProt O15379); experiment: Epigenetic enzyme assay, Histone deacetylase (HDACs); type: biochemical; details: read-out: % Inhibition of Control Values
Sequence of HDAC3 (h) (O15379 whole entry): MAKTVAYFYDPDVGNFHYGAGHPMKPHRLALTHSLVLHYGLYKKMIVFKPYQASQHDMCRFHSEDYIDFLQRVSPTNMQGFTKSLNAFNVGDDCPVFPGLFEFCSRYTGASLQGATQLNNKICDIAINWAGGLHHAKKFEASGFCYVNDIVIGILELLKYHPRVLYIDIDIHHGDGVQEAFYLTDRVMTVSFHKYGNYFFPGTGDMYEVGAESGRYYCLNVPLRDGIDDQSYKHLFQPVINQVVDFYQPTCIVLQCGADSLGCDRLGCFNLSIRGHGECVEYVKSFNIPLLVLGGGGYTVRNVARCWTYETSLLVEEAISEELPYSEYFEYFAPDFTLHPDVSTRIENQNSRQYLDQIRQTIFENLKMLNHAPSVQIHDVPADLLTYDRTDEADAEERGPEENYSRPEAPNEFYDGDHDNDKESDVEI
Sequence of HDAC3 (h) (Q9Y618 395-489 partner limits assumed): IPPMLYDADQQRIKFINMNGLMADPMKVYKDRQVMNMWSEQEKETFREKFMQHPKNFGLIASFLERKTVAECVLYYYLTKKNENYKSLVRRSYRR

BAP1 (h) = target: T6, BAP1 (h) (Homo sapiens, UniProt Q92560); experiment: Epigenetic enzyme assay, Ubiquitin modifying enzymes; type: biochemical; details: 10 μM; read-out: % Inhibition of Control Values
T6 sequence (Q92560 1-729): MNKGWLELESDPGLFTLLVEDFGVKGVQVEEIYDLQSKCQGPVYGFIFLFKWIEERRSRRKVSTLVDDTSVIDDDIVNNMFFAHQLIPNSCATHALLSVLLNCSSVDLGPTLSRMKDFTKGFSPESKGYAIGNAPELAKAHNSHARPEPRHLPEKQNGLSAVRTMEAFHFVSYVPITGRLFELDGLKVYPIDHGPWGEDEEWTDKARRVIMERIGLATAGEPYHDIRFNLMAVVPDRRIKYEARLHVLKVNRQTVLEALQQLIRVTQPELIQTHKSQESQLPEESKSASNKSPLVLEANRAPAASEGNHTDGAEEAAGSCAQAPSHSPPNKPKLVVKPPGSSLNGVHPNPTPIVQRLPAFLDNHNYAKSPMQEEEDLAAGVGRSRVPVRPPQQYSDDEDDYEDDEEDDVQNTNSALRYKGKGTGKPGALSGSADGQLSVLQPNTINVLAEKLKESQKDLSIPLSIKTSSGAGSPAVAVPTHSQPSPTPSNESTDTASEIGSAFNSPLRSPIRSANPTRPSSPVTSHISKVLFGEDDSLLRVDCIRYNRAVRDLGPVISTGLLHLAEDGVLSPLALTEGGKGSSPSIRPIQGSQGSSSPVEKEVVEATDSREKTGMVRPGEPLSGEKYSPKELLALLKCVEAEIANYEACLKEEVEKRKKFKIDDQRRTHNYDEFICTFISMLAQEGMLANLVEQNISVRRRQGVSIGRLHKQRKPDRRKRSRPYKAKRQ

[3] = assay year 2014, read-out: % Control Response
[4] = assay year 2015, read-out: % Control Response
[5] = J-RT3-T3-5, Leukemia, read-out: Cell Count GI50

| SMILES | inhibition at 10 µM [1] [%] | inhibition at 10 µM (PRMT1 (h)) [%] | remaining activity at 10 µM (Deacetylase, Histone 2; [3]) [%] | remaining activity at 10 µM (Deacetylase, Histone 2; [4]) [%] | inhibition at 10 µM [2] [%] | inhibition at 10 µM (SETD7 (h)) [%] | % Inhibition of Control Specific Binding (TAF1(2)(h) bromodomain) | inhibition at 10 µM (TAF1(2)(h) bromodomain) [%] | inhibition at 10 µM (PCAF (h) bromodomain) [%] | GI50 (J-RT3-T3-5 leukemia; J-RT3-T3-5, read-out: GI50) [nM] | EC50 (J-RT3-T3-5 leukemia; J-RT3-T3-5, Leukemia) [nM] | GI50 (J-RT3-T3-5 leukemia; [5]) [nM] | IC50 (J-RT3-T3-5 leukemia; J-RT3-T3-5, Leukemia) [nM] | inhibition at 10 µM (HDAC3 (h)) [%] | inhibition at 10 µM (BAP1 (h)) [%] | IC50 (SETD7 (h); read-out: Reference IC50) [nM] | times less activity than Compound 1 (J-RT3-T3-5 leukemia; ratio of GI50 values) |
| --- | --- | --- | --- | --- | --- | --- | --- | --- | --- | --- | --- | --- | --- | --- | --- | --- | --- |
| CC(C)=CCC[C@H](CO)[C@@H]1CC[C@@H](C)c2c1cc(C)c(O)c2O [Compound 1, 7,8,18-trihydroxyserrulat-14-ene] | 2 | 16 | 56 | 34 | 18 | 12 | significant inhibitory activity | 62 | 37 | 10.1 | 10 | 10 | 10 | 1 | 1 |  |  |
| CC(C)=CCC[C@@H]1COc2c(C)cc(O)c3c2[C@H]1CC[C@H]3C [Compound 3, 5,18-epoxy-8-hydroxyserrulat-14-ene] | -5 | -1 |  | 12 | 18 | -2 |  | 22 | 3 |  |  |  |  | 3 | 24 |  |  |
| Nc1ncnc2c1ncn2[C@@H]1O[C@H](CSCC[C@H](N)C(=O)O)[C@@H](O)[C@H]1O [SAH] |  |  |  |  |  |  |  |  |  |  |  |  |  |  |  | 24000 |  |
| CC(C)=CCC[C@H](C)[C@@H]1CC[C@@H](C)c2c1cc(C)c(O)c2O [Compound 4, 7,8-dihydroxyserrulat-14-ene] |  |  |  |  |  |  |  |  |  | 2710 | 2710 | 2710 | 2710 |  |  |  | approximately 270 times |
| CC(C)=CCC[C@@H]1C(O)Oc2c(C)cc(O)c3c2[C@H]1CC[C@H]3C (stereo partly shown) [Compound 2, 5,18-epoxyserrulat-14-en-8,18-diol] | -3 | 26 | 44 | 21 | -2 | 16 |  | 28 | 16 |  | 2080 | 2060 | 2080 | 1 | -9 |  |  |
